Where a name gives a salt, the structure may show the parent alone.
target: T1, human recombinant ALK1 (GST fused to ALK1 intracellular domain [His142-Gln503]) (Homo sapiens, UniProt P37023); assay: ALK1-Kinase Flashplate-Assay; format: biochemical; conditions: 0.5 μM ATP, biotinylated α-casein substrate; read-out: Assay 1 (ALK1-Kinase Flashplate-Assay IC50 class)
T1 construct: GST fused to ALK1 intracellular domain [His142-Gln503]; made in house
T1 sequence (P37023 142-503): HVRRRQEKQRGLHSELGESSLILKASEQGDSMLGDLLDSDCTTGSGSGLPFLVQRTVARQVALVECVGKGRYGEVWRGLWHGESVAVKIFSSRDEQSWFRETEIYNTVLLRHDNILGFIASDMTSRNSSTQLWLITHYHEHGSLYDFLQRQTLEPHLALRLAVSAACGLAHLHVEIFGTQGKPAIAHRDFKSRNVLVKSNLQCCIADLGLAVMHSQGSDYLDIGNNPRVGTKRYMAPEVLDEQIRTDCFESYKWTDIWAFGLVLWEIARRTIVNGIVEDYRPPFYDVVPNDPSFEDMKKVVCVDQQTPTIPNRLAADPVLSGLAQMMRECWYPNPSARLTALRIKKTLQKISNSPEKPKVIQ
How it was run: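 Radiometric Flashplate assay at 20 °C: GST-ALK1 intracellular domain (5 ng/well) with 1 μM biotinylated bovine α-casein, 0.5 μM ATP plus [γ-33P]ATP in Tris pH 8.0, 1 mM MnCl2, 1% or 5% DMSO, 60 min. Normalised to no-inhibitor (0%) and 10 mM EDTA (100%); IC50 by 4-parameter fit.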

Row | SMILES | IC50 [nM]
1 | NC(=O)c1cccc(-c2cnn3ccc(NC4CCC(O)CC4)nc23)c1 (centres unmarked) [Example 220, 3-[5-(4-Hydroxy-cyclohexylamino)-pyrazolo[1,5-a]pyrimidin-3-yl]-benzamide] | 1000 to 10000
2 | COc1ccc(-c2cnn3ccc(Nc4ccc(C(C)C)cc4)nc23)cc1OC [Example 37, [3-(3,4-Dimethoxy-phenyl)-pyrazolo[1,5-a]pyrimidin-5-yl]-(4-isopropyl-phenyl)-amine] | 1000 to 10000
3 | Fc1ccccc1-c1cnn2ccc(NCc3cccnc3)nc12 [Example 408, [3-(2-Fluoro-phenyl)-pyrazolo[1,5-a]pyrimidin-5-yl]-pyridin-3-ylmethyl-amine] | 1000 to 10000
4 | OCc1cccc(-c2cnn3ccc(Nc4ccccc4)nc23)c1 [Example 272, [3-(5-Phenylamino-pyrazolo[1,5-a]pyrimidin-3-yl)-phenyl]-methanol] | < 1000
5 | Cn1cc(-c2cnn3ccc(Nc4ccc(O)cc4)nc23)cn1 [Example 194, 4-[3-(1-Methyl-1H-pyrazol-4-yl)-pyrazolo[1,5-a]pyrimidin-5-ylamino]-phenol] | 1000 to 10000
6 | Oc1cccc(-c2cnn3ccc(NCc4cccnc4)nc23)c1 [Example 168, 3-{5-[(Pyridin-3-ylmethyl)-amino]-pyrazolo[1,5-a]pyrimidin-3-yl}-phenol] | < 1000
7 | COc1ccc(Nc2ccn3ncc(-c4ccsc4)c3n2)cn1 [Example 464, (6-Methoxy-pyridin-3-yl)-(3-thiophen-3-yl-pyrazolo[1,5-a]pyrimidin-5-yl)-amine] | 1000 to 10000
8 | Oc1ccc(-c2cnn3ccc(NCc4ccncc4)nc23)cc1 [Example 66, 4-{5-[(Pyridin-4-ylmethyl)-amino]-pyrazolo[1,5-a]pyrimidin-3-yl}-phenol] | < 1000
9 | Cc1ccc(Nc2ccn3ncc(-c4cccc(N)c4)c3n2)cc1NS(C)(=O)=O [Example 186] | 1000 to 10000
10 | CCN(CC)CCCNc1ccn2ncc(-c3cccc(Cl)c3)c2n1 [Example 486, N′-[3-(3-chloro-phenyl)-pyrazolo[1,5-a]pyrimidin-5-yl]-N,N-diethyl-propane-1,3-diamine] | 1000 to 10000
11 | Nc1ccc(C(=O)Nc2ccc(Nc3ccn4ncc(-c5ccc(F)cc5)c4n3)cc2)cc1 [Example 400, 4-Amino-N-{4-[3-(4-fluoro-phenyl)-pyrazolo[1,5-a]pyrimidin-5-ylamino]-phenyl}-benzamide] | 1000 to 10000
12 | COc1ccc(-c2cnn3ccc(Nc4ccc(Oc5ccccc5)cc4)nc23)cc1OC [Example 33, [3-(3,4-Dimethoxy-phenyl)-pyrazolo[1,5-a]pyrimidin-5-yl]-(4-phenoxy-phenyl)-amine] | 1000 to 10000
13 | Cn1cc(-c2cnn3ccc(Nc4ccc(N5CCOCC5)cc4)nc23)cn1 [Example 235, [3-(1-Methyl-1H-pyrazol-4-yl)-pyrazolo[1,5-a]pyrimidin-5-yl]-(4-morpholin-4-yl-phenyl)-amine] | 1000 to 10000
14 | Fc1cccc(-c2cnn3ccc(NCc4cccnc4)nc23)c1 [Example 405, [3-(3-Fluoro-phenyl)-pyrazolo[1,5-a]pyrimidin-5-yl]-pyridin-3-ylmethyl-amine] | 1000 to 10000
15 | COc1cc(Nc2ccn3ncc(-c4cccc(O)c4)c3n2)cc(OC)c1OC [Example 138, 3-[5-(3,4,5-Trimethoxy-phenylamino)-pyrazolo[1,5-a]pyrimidin-3-yl]-phenol] | 1000 to 10000
16 | c1csc(-c2cnn3ccc(NC4CCCNC4)nc23)c1 (centres unmarked) [Example 496, Piperidin-3-yl-(3-thiophen-2-yl-pyrazolo[1,5-a]pyrimidin-5-yl)-amine mono TFA salt] | 1000 to 10000
17 | COc1cc(-c2cnn3ccc(NC4CCC(O)CC4)nc23)ccc1O (centres unmarked) [Example 160, 4-[5-(4-Hydroxy-cyclohexylamino)-pyrazolo[1,5-a]pyrimidin-3-yl]-2-methoxy-phenol] | 1000 to 10000
18 | c1ccc(Nc2ccn3ncc(-c4cccnc4)c3n2)cc1 [Example 278, Phenyl-(3-pyridin-3-yl-pyrazolo[1,5-a]pyrimidin-5-yl)-amine] | 1000 to 10000
19 | COc1cc(Nc2ccn3ncc(-c4cccc(C(C)=O)c4)c3n2)cc(OC)c1OC [Example 179, 1-{3-[5-(3,4,5-Trimethoxy-phenylamino)-pyrazolo[1,5-a]pyrimidin-3-yl]-phenyl}-ethanone] | 1000 to 10000
20 | c1ccc(Cn2cc(-c3cnn4ccc(NCc5ccncc5)nc34)cn2)cc1 [Example 219, [3-(1-Benzyl-1H-pyrazol-4-yl)-pyrazolo[1,5-a]pyrimidin-5-yl]-pyridin-4-ylmethyl-amine] | 1000 to 10000
21 | COc1ccc(Nc2ccn3ncc(-c4cccc(C(C)=O)c4)c3n2)cn1 [Example 437, 1-{3-[5-(6-Methoxy-pyridin-3-ylamino)-pyrazolo[1,5-a]pyrimidin-3-yl]-phenyl}-ethanone] | 1000 to 10000

Row | SMILES | IC50 [nM]
22 | NC(=O)c1cccc(-c2cnn3ccc(Nc4ccc(Oc5ccccc5)cc4)nc23)c1 [Example 38, 3-[5-(4-Phenoxy-phenylamino)-pyrazolo[1,5-a]pyrimidin-3-yl]-benzamide] | 1000 to 10000
23 | Oc1ccc(Nc2ccn3ncc(-c4ccc5c(c4)OCO5)c3n2)cc1 [Example 45, 4-(3-Benzo[1,3]dioxol-5-yl-pyrazolo[1,5-a]pyrimidin-5-ylamino)-phenol] | 1000 to 10000
24 | NC(=O)c1cccc(-c2cnn3ccc(NCc4ccncc4)nc23)c1 [Example 213, 3-{5-[(Pyridin-4-ylmethyl)-amino]-pyrazolo[1,5-a]pyrimidin-3-yl}-benzamide] | 1000 to 10000
25 | Oc1ccc(Nc2ccn3ncc(-c4ccsc4)c3n2)cc1 [Example 48, 4-(3-Thiophen-3-yl-pyrazolo[1,5-a]pyrimidin-5-ylamino)-phenol] | < 1000
26 | c1cncc(CNc2ccn3ncc(-c4ccsc4)c3n2)c1 [Example 291, Pyridin-3-ylmethyl-(3-thiophen-3-yl-pyrazolo[1,5-a]pyrimidin-5-yl)-amine] | 1000 to 10000
27 | COc1cc(-c2cnn3ccc(Nc4cccc(Cl)c4)nc23)ccc1O [Example 314, 4-[5-(3-Chloro-phenylamino)-pyrazolo[1,5-a]pyrimidin-3-yl]-2-methoxy-phenol] | 1000 to 10000
28 | OCCNc1ccn2ncc(-c3ccc(Cl)cc3)c2n1 [Example 121, 2-[3-(4-Chloro-phenyl)-pyrazolo[1,5-a]pyrimidin-5-ylamino]-ethanol] | 1000 to 10000
29 | COc1ccc(-c2cnn3ccc(NCc4cccnc4)nc23)cc1 [Example 167, [3-(4-Methoxy-phenyl)-pyrazolo[1,5-a]pyrimidin-5-yl]-pyridin-3-ylmethyl-amine] | 1000 to 10000
30 | COc1ccc(-c2cnn3ccc(NCc4ccncc4)nc23)cc1 [Example 154, [3-(4-Methoxy-phenyl)-pyrazolo[1,5-a]pyrimidin-5-yl]-pyridin-4-ylmethyl-amine] | 1000 to 10000
31 | CN(C)CCNC(=O)c1cccc(-c2cnn3ccc(Nc4ccc(Oc5ccccc5)cc4)nc23)c1 [Example 329, N-(2-Dimethylamino-ethyl)-3-[5-(4-phenoxy-phenylamino)-pyrazolo[1,5-a]pyrimidin-3-yl]-benzamide] | 1000 to 10000
32 | COc1ccc(-c2cnn3ccc(Nc4ccc(O)cc4)nc23)cn1 [Example 147, 4-[3-(6-Methoxy-pyridin-3-yl)-pyrazolo[1,5-a]pyrimidin-5-ylamino]-phenol] | < 1000
33 | O=C(O)c1ccc(-c2cnn3ccc(Nc4ccc(Oc5ccccc5)cc4)nc23)cc1 [Example 255, 4-[5-(4-Phenoxy-phenylamino)-pyrazolo[1,5-a]pyrimidin-3-yl]-benzoic acid] | < 1000
34 | OCc1cccc(-c2cnn3ccc(Nc4cccc(Cl)c4)nc23)c1 [Example 312, {3-[5-(3-Chloro-phenylamino)-pyrazolo[1,5-a]pyrimidin-3-yl]-phenyl}-methanol] | 1000 to 10000
35 | c1cc(CNc2ccn3ncc(-c4cn[nH]c4)c3n2)ccn1 [Example 218, [3-(1H-Pyrazol-4-yl)-pyrazolo[1,5-a]pyrimidin-5-yl]-pyridin-4-ylmethyl-amine] | 1000 to 10000
36 | COc1cncc(-c2cnn3ccc(Nc4ccc(C)c(NS(C)(=O)=O)c4)nc23)c1 [Example 107, N-{5-[3-(5-Methoxy-pyridin-3-yl)-pyrazolo[1,5-a]pyrimidin-5-ylamino]-2-methyl-phenyl}-methanesulfonamide] | 1000 to 10000
37 | c1csc(-c2cnn3ccc(Nc4ccc(N5CCOCC5)cc4)nc23)c1 [Example 234, (4-Morpholin-4-yl-phenyl)-(3-thiophen-2-yl-pyrazolo[1,5-a]pyrimidin-5-yl)-amine] | 1000 to 10000
38 | COc1ccc(-c2cnn3ccc(NCc4ccncc4)nc23)cc1OC [Example 65, [3-(3,4-Dimethoxy-phenyl)-pyrazolo[1,5-a]pyrimidin-5-yl]-pyridin-4-ylmethyl-amine] | < 1000
39 | Fc1ccc(-c2cnn3ccc(NCc4cccnc4)nc23)cc1Cl [Example 379, [3-(3-Chloro-4-fluoro-phenyl)-pyrazolo[1,5-a]pyrimidin-5-yl]-pyridin-3-ylmethyl-amine] | 1000 to 10000
40 | COc1ccc(-c2cnn3ccc(Nc4ccc(OC)nc4)nc23)cc1 [Example 425, [3-(4-Methoxy-phenyl)-pyrazolo[1,5-a]pyrimidin-5-yl]-(6-methoxy-pyridin-3-yl)-amine] | 1000 to 10000
41 | COc1cc(Nc2ccn3ncc(-c4ccc(O)cc4)c3n2)cc(OC)c1OC [Example 463, 4-[5-(3,4,5-Trimethoxy-phenylamino)-pyrazolo[1,5-a]pyrimidin-3-yl]-phenol] | 1000 to 10000

Reference: patent US20080039455A1, “PYRAZOLOPYRIMIDINES AND SALTS THEREOF, PHARMACEUTICAL COMPOSITIONS COMPRISING SAME, METHODS OF PREPARING SAME AND USES OF SAME” (priority 2006, published 2008)
